In patent publication US7030133B2, “Inhibitors of formation of advanced glycation endproducts (AGEs)” (City of Hope, priority 1999, dated 2006):

What was measured:
[1] = N-Acetyl-Glycyl-Lysine Methyl Ester (G.K. peptide)-Ribose assay; type: biochemical; settings: 24 hours at 37° C.; for Percent Inhibition in the G.K.-Ribose Assay: 1 millimole/L compound, fluorescence 330/415 nm
Description: Evaluation of the late glycation products (AGEs), and AGE-inhibition by the new inhibitor compounds was tested by incubation of G.K. peptide in ribose in the presence or the absence of the agent, followed by determination of chromophores generated in the course of glycation and AGE formation through determination of their specific fluorescence. The Nagaraj et al. (1996) method used to evaluate the ability of the compounds of the present invention to inhibit the crosslinking of N-acetylglycyl-lysine methyl ester in the presence of ribose was as follows: Stock Solutions: • 0.5 M sodium phosphate buffer pH 7.4 containing NaN3 0.2 g/L • GK peptide (Sigma) 80 mg/mL in 0.5 M sodium phosphate buffer pH 7.4 • Ribose 800 mM (120 mg/mL) in 0.5 M phosphate buffer Triplicate samples of equal volumes (0.1 mL) of the 3 stock solutions were mixed together, filtered through a 0.2 micron filter (Coming) and incubated under aseptic conditions for 24 hours at 37° C. The inhibitor compounds were added to a final concentration of 1 millimole/L. At the end of the incubation period, samples were analyzed for their specific fluorescence (excitation, 330 nm; emission, 415 nm). The % inhibition by different concentrations of inhibitor was calculated as described above. Aminoguanidine was used at 50 mM as a positive control.

[2] = test system: hemoglobin (HbAlC formation); assay: Hemoglobin-δ-Gluconolactone (δ-Glu) assay (early stage glycation, HbAlC formation in whole blood); type: cell-based, human; settings: 1 millimole/L compound, 50 millimoles/L δ-Glu, whole blood from normal volunteers, 16 hours at 37° C.
Description: The δ-Glu assay is a specific method for investigation of inhibitors of the early stage of glycation. Evaluation of early glycation products (Amadori) formation on hemoglobin (HbAlC) is performed by incubating red blood cells with an oxidized form of glucose in the presence and the absence of the inhibitor compound followed by determination of HbAlC in the test versus the control (Rahbar and Nadler., 1999). […] By contrast, glucose requires weeks for an equivalent reaction to occur. We have used this finding to devise an assay method to measure early stage glycation of hemoglobin (Amadori product) and an assay to evaluate the ability of an inhibitor to inhibit HbAlC formation. Briefly, fresh blood was drawn in potassium-EDTA and prepared for incubation within 30 minutes of collection by mixing 200 μL of blood with 40 μL of either phosphate buffered-saline (PBS), pH 7.4, alone, PBS containing 50 millimoles/L δ-Glu (Sigma), or PBS containing 50 millimoles/L δ-Glu plus 1 millimole/L inhibitor. After incubation for 16 hours at 37° C., the percentage of glycated hemoglobin present was determined. The percentage of glycated Hb (HbAlC) was determined using a dedicated ion-exchange HPLC system (BIORAD DIAMAT). Blood samples were analyzed in triplicate. The % inhibition of HbAlC formation by the compound was calculated according to the following formula: ((B−C)/(B−A))×100 where A is HbAlC concentration in the baseline control tube not treated with δ-Glu, B is the HbAlC concentration in blood incubated with δ-Glu, C is the HbAlC content of the test tube treated both with δ-Glu and the inhibitor compound.
The amount of (HbAlC) formation using δ-Glu treated whole blood from normal volunteers using 1 millimole/L of the compounds was calculated. Various inhibitors (compounds LR103-LR115) show different levels of HbAlC depending on their inhibitory potencies.

[3] = test system: BSA; assay: BSA-Glucose assay (glucose-mediated development of fluorescence of BSA); type: biochemical; settings: BSA 50 mg/mL, 800 mM glucose, 7 days at 37° C., fluorescence 330/410 nm; compound concentration not stated
Description: This test is used to evaluate the ability of the inhibitors to inhibit glucose-mediated development of fluorescence of BSA (Ikeda et al., 1996). Triplicate samples of BSA (fraction V, essentially fatty acid free, low endotoxin) from Sigma 50 mg/mL and 800 mM glucose (144 mg/mL) in […] phosphate buffer pH 7.4 containing NaN3 0.2 g/L was incubated under aseptic conditions at 37° C. for 7 days in the presence or absence of various concentrations of the compounds. After 7 days of incubation each sample was examined for the development of specific fluorescence (excitation, 330 nm; emission, 410 nm). The % inhibition of AGE formation in the test sample versus control was calculated for each inhibitor compound. Aminoguanidine (50 mM) was used as a positive control.
This method assays for inhibitors of late glycation and AGE formation (post-Amadori).

[4] = Inhibition of copper-catalyzed autooxidation of ascorbic acid (copper-chelating activity); type: physicochemical; settings: read-out: IC50, concentration that inhibited the rate of ascorbic acid oxidation by 50% (copper-chelating activity), FIGS. 3 and 4
Description: This assay was performed according to Price et al. (2001). The kinetics of oxidation of ascorbic acid (AA) at the rate of decrease in absorbance at 265 nm was measured. For studies with AGE inhibitors, the ascorbic acid was added to initiate the reaction. Aliquots were removed at 0, 15, 30, 45, and 60 minutes and transferred to autoinjector vials containing DPTA. Samples were analyzed by reverse phase HPLC, (Waters 2690 Millenium 32 Separator Module), equipped with an auto-injector using Xterra™ RP18 column (250×4.6 mm, 5 μm). Solvents and gradient were all used as described in Price et al. (2001). The concentration of each inhibitor compound that inhibited the rate of AA oxidation by 50% was calculated using Prism (Graph Pad-San Diego).

For “4-[(3,5-dichlorophenyureido)phenoxyisobutyrylamido]-2-hydroxybenzene-4-carboxylic acid [LR114]”, the “Percent Inhibition in the G.K.-Ribose Assay” value [1] was 7.2%, the “Percent Inhibition of HbAlC formation in the δ-Glu Assay” value (“Percent Inhibition … in the δ-Glu Assay” for short) [2] was 45.4% and the “Percent Inhibition in the BSA-Glucose Assay” value [3] was 22.7%.

With `CC(=O)N[C@@H](Cc1c[nH]cn1)C(=O)Oc1cccc2cccnc12` [LR113, L-8-quinolinolyl(acetylhistidine)] the “Percent Inhibition in the G.K.-Ribose Assay” value [1] was 11%, the “Percent Inhibition … in the δ-Glu Assay” value [2] was 36.3% and the “Percent Inhibition in the BSA-Glucose Assay” value [3] was 21.5%.

With `O=C(O)COc1cccc2cccnc12` [LR111, 8-quinolinoxy acetic acid] the “Percent Inhibition in the G.K.-Ribose Assay” value [1] was 9.7%, the “Percent Inhibition … in the δ-Glu Assay” value [2] was 38.6% and the “Percent Inhibition in the BSA-Glucose Assay” value [3] was 21.6%.

In the case of `CC(C)(Oc1ccc(NC(=O)Nc2cc(Cl)cc(Cl)c2)cc1)C(=O)N[C@@H](Cc1ccccc1)C(=O)O` [LR115, L, α-4-[(3,5-dichlorophenyureido)phenoxyisobutyrylamido]phenylalanine], the “Percent Inhibition in the G.K.-Ribose Assay” value [1] is reported as 0%, the “Percent Inhibition … in the δ-Glu Assay” value [2] is reported as 47.7% and the “Percent Inhibition in the BSA-Glucose Assay” value [3] is reported as 22.3%.

For `CC(C)(Oc1ccc(NC(=O)Nc2ccc(F)c(Cl)c2)cc1)C(=O)Nc1ccccc1C(=O)O` [LR104, 4-(4-fluoro-3-chlorophenylurido)phenoxyisobutyrylamidophenyl-2-carboxylic acid], the IC50 [4] was ~100 µM, the “Percent Inhibition in the G.K.-Ribose Assay” value [1] was 0% and the “Percent Inhibition … in the δ-Glu Assay” value [2] was 47.7%. The “Percent Inhibition in the BSA-Glucose Assay” value [3] was 18.4%.

With “4,4′-bis [(methyleneoxyethyleneamino)phenoxy]isobutyric acid [LR112]” the “Percent Inhibition in the G.K.-Ribose Assay” value [1] was 21%, the “Percent Inhibition … in the δ-Glu Assay” value [2] was 43.2% and the “Percent Inhibition in the BSA-Glucose Assay” value [3] was 44.7%.

In the case of `CC(C)(Oc1ccc(N(Cc2c(F)cccc2Cl)C(=O)Nc2ccc(Cl)c(Cl)c2)cc1)C(=O)O` [LR105, 1[(2-fluoro-6-chlorobenzyl)-3-(3,4-dichlorophenyureido)]-4-phenoxyisobutyric acid], the “Percent Inhibition in the G.K.-Ribose Assay” value [1] is reported as 12%, the “Percent Inhibition … in the δ-Glu Assay” value [2] is reported as 38.6% and the “Percent Inhibition in the BSA-Glucose Assay” value [3] is reported as 21.5%.

With `CC(C)(Oc1ccc(NC(=O)Nc2ccc(NC(=O)Nc3ccc(OC(C)(C)C(=O)O)cc3)c(Cl)c2)cc1)C(=O)O` [LR107, 2-chlorobenzene-1,4-bis(4-ureidophenoxyisobutyric acid)] the “Percent Inhibition in the G.K.-Ribose Assay” value [1] was 19.5%, the “Percent Inhibition … in the δ-Glu Assay” value [2] was 43.2% and the “Percent Inhibition in the BSA-Glucose Assay” value [3] was 28.7%.

In the case of `CC(C)(Oc1ccc(N(Cc2c(F)cccc2Cl)C(=O)Nc2c(F)cccc2Cl)cc1)C(=O)O` [LR109, 1-[(2-fluoro-6-chlorobenzyl)-3-(2-fluoro-6-chlorophenylureido)]-4-phenoxyisobutyric acid], the “Percent Inhibition in the G.K.-Ribose Assay” value [1] is reported as 9.5%, the “Percent Inhibition … in the δ-Glu Assay” value [2] is reported as 56.8% and the “Percent Inhibition in the BSA-Glucose Assay” value [3] is reported as 34.6%.

In the case of `CC(C)(Oc1ccc(N(Cc2ccc(Cl)cc2)C(=O)Nc2ccc(Cl)c(Cl)c2)cc1)C(=O)O` [LR103, 1-[(4-chlorobenzyl)-3-(3,4-dichlorophenylureido)]-4-phenoxyisobutyric acid], the IC50 [4] is reported as ~75 µM, the “Percent Inhibition in the G.K.-Ribose Assay” value [1] is reported as 14% and the “Percent Inhibition … in the δ-Glu Assay” value [2] is reported as 43.2%. For the same molecule, the “Percent Inhibition in the BSA-Glucose Assay” value [3] was 4%.

With `CC(C)(Oc1ccc(NC(=O)c2c3c(nc4ccccc24)CCCC3)cc1)C(=O)O` [LR110, 4-(1,2,3,4-tetrahydroacridine-9-carboxamidophenoxyisobutyric)acid] the “Percent Inhibition in the G.K.-Ribose Assay” value [1] was 11%, the “Percent Inhibition … in the δ-Glu Assay” value [2] was 38.6% and the “Percent Inhibition in the BSA-Glucose Assay” value [3] was 28.5%.

For `N=C(N)NN` [AG, aminoguanidine, reference compound], the “Percent Inhibition in the G.K.-Ribose Assay (positive control)” value ([1]; Aminoguanidine 50 mM) was 67%.

With `CC(C)(Oc1ccc(NCc2ccc(Cl)cc2)cc1)C(=O)O` [LR106, 4-(4-chlorobenzylaminophenoxyisobutyric)acid] the “Percent Inhibition in the G.K.-Ribose Assay” value [1] was 10.5%, the “Percent Inhibition … in the δ-Glu Assay” value [2] was 40.9% and the “Percent Inhibition in the BSA-Glucose Assay” value [3] was 14.4%.

With `CC(C)(Oc1ccc(N(Cc2ccc(Cl)cc2)C(=O)Nc2cc(Cl)cc(Cl)c2)cc1)C(=O)O` [LR108, 1-[(4-chlorobenzyl)-3-(3,5-dichlorophenyureido)]-4-phenoxyisobutyric acid] the “Percent Inhibition in the G.K.-Ribose Assay” value [1] was 19.7%, the “Percent Inhibition … in the δ-Glu Assay” value [2] was 2.0% and the “Percent Inhibition in the BSA-Glucose Assay” value [3] was 31.1%.
